Test [1] relates to THP1-Dual cells, NF-κB pathway (SEAP). Description: THP-1 Dual cell SEAP assay (L18-MDP stimulated). The test is classed as cell-based. To be noted: Homo sapiens, 10 ng/mL L18-MDP, 20-24 h, SEAP readout, read-out: IFNγ THP1 IC50. The procedure, abridged:
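IC50 values come from non-linear fits of % inhibition of SEAP, measured as QUANTI-Blue optical density (620-655 nm, 2 h) in media-blanked supernatants. These were taken from THP1-Dual cells treated with compound for 30 min before overnight exposure to 10 ng/mL L18-MDP final at 37 °C.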

The target of the next test is T1, RIPK2 (KD)/XIAP (BIR2) (Homo sapiens, UniProt O43353).
T1 construct: made in house; host or cells: baculovirus-infected Sf9 cells
T1 sequence (O43353 1-310): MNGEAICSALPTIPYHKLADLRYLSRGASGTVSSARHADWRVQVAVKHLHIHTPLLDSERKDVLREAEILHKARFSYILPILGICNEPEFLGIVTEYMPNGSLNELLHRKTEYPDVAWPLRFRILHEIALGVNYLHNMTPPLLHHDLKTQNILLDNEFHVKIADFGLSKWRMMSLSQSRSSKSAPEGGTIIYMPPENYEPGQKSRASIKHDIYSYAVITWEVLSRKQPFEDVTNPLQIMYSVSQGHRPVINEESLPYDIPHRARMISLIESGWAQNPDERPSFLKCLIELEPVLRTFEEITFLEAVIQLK
Briefly: RIPK2-XIAP binding competition PPI assay (TR-FRET). The note with it: for Emax: 50 nM of GSK583 = -100% activity, read-out: PPI Amax; for IC50: GST-RIPK2 / His-XIAP (BIR2)-avi, 120 min at 23° C. The procedure, abridged:
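After 2 h at 23 °C, complex formation was read as the 665/520 nm emission ratio (337 nm excitation), scaled between uninhibited reaction and 50 nM GSK583. The mix held 1 nM human RIPK2 kinase fragment-GST, 25 nM His-tagged XIAP BIR2 and Tb/XL665 antibodies in pH 7.5 Tris buffer containing vanadate and glycerophosphate.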

The structures appear in SMILES notation.

In the case of `C[C@@H](NC(=O)c1cc(-c2cnc3cc(OCCO)c(S(=O)(=O)C(C)(C)C)cn23)nn1C)c1nccs1` [Example 94, (R)-3-(6-(tert-butylsulfonyl)-7-(2-hydroxyethoxy)imidazo[1,2-a]pyridin-3-yl)-1-methyl-N-(1-(thiazol-2-yl)ethyl)-1H-pyrazole-5-carboxamide], the IC50 in test [1] was in the range of 100 to 500 nM; on RIPK2 (KD)/XIAP (BIR2), 10 to 100 nM. For the same compound, the Emax on RIPK2 (KD)/XIAP (BIR2) was not below 80%.

In the case of `CCn1nc(-c2cnc3cc(OC)c(S(=O)(=O)C(C)(C)C)cn23)cc1C(=O)N[C@H](C)c1ccccn1` [Example 95, (R)-3-(6-(tert-butylsulfonyl)-7-methoxyimidazo[1,2-a]pyridin-3-yl)-1-ethyl-N-(1-(pyridin-2-yl)ethyl)-1H-pyrazole-5-carboxamide], the IC50 in test [1] was less than 100 nM; on RIPK2 (KD)/XIAP (BIR2), less than 10 nM. In addition, the Emax on RIPK2 (KD)/XIAP (BIR2) is not below 80%.

Regarding `CCn1nc(-c2cnc3cc(OC)c(S(=O)(=O)C(C)(C)C)cn23)cc1C(=O)N[C@H](C)c1ncccn1` [Example 96, (R)-3-(6-(tert-butylsulfonyl)-7-methoxyimidazo[1,2-a]pyridin-3-yl)-1-ethyl-N-(1-(pyrimidin-2-yl)ethyl)-1H-pyrazole-5-carboxamide], the IC50 in test [1] is less than 100 nM. Moreover, on RIPK2 (KD)/XIAP (BIR2), the Emax is not below 80% and the IC50 was less than 10 nM.

Consider `CCn1nc(-c2cnc3cc(OC)c(S(=O)(=O)C(C)(C)C)cn23)cc1C(=O)N[C@H](C)c1ncccc1F` [Example 97, (R)-3-(6-(tert-butylsulfonyl)-7-methoxyimidazo[1,2-a]pyridin-3-yl)-1-ethyl-N-(1-(3-fluoropyridin-2-yl)ethyl)-1H-pyrazole-5-carboxamide], for which the IC50 in test [1] was less than 100 nM. Moreover, on RIPK2 (KD)/XIAP (BIR2), the Emax was not below 80% and the IC50 is less than 10 nM.

As to `CCn1nc(-c2cnc3cc(OC)c(S(=O)(=O)C(C)(C)C)cn23)cc1C(=O)N[C@H](C)c1nccs1` [Example 98, (R)-3-(6-(tert-butylsulfonyl)-7-methoxyimidazo[1,2-a]pyridin-3-yl)-1-ethyl-N-(1-(thiazol-2-yl)ethyl)-1H-pyrazole-5-carboxamide], the IC50 in test [1] was less than 100 nM. For the same compound, on RIPK2 (KD)/XIAP (BIR2), the Emax was not below 80% and the IC50 is less than 10 nM.

`COc1cc2ncc(-c3cc(C(=O)N[C@H](C)c4ccccn4)n(C4CC4)n3)n2cc1S(=O)(=O)C(C)(C)C` [Example 99, (R)-3-(6-(tert-butylsulfonyl)-7-methoxyimidazo[1,2-a]pyridin-3-yl)-1-cyclopropyl-N-(1-(pyridin-2-yl)ethyl)-1H-pyrazole-5-carboxamide]: the IC50 in test [1] is less than 100 nM. In addition, at RIPK2 (KD)/XIAP (BIR2), the Emax is not below 80% and the IC50 is less than 10 nM.

For the compound `COc1cc2ncc(-c3cc(C(=O)N[C@H](C)c4ncccn4)n(C4CC4)n3)n2cc1S(=O)(=O)C(C)(C)C` [Example 100, (R)-3-(6-(tert-butylsulfonyl)-7-methoxyimidazo[1,2-a]pyridin-3-yl)-1-cyclopropyl-N-(1-(pyrimidin-2-yl)ethyl)-1H-pyrazole-5-carboxamide], the IC50 in test [1] was less than 100 nM. On RIPK2 (KD)/XIAP (BIR2), the Emax was not below 80% and the IC50 is less than 10 nM.

Consider `COc1cc2ncc(-c3cc(C(=O)N[C@H](C)c4ccccn4)n(C(C)C)n3)n2cc1S(=O)(=O)C(C)(C)C` [Example 101, (R)-3-(6-(tert-butylsulfonyl)-7-methoxyimidazo[1,2-a]pyridin-3-yl)-1-isopropyl-N-(1-(pyridin-2-yl)ethyl)-1H-pyrazole-5-carboxamide], for which, in test [1], the IC50 is less than 100 nM. In addition, on RIPK2 (KD)/XIAP (BIR2), the Emax was not below 80% and the IC50 was less than 10 nM.

With `COc1cc2ncc(-c3cc(C(=O)N[C@H](C)c4ncccn4)n(C(C)C)n3)n2cc1S(=O)(=O)C(C)(C)C` [Example 102, (R)-3-(6-(tert-butylsulfonyl)-7-methoxyimidazo[1,2-a]pyridin-3-yl)-1-isopropyl-N-(1-(pyrimidin-2-yl)ethyl)-1H-pyrazole-5-carboxamide], the IC50 is less than 100 nM in test [1] and less than 10 nM on RIPK2 (KD)/XIAP (BIR2). For the same compound, the Emax on RIPK2 (KD)/XIAP (BIR2) is not below 80%.

For the compound `COc1cc2ncc(-c3cc(C(=O)N[C@H](C)c4ncccn4)n(C)n3)n2cc1S(=O)(=O)C(C)(C)C` [Example 103, (R)-3-(6-(tert-butylsulfonyl)-7-methoxyimidazo[1,2-a]pyridin-3-yl)-1-methyl-N-(1-(pyrimidin-2-yl)ethyl)-1H-pyrazole-5-carboxamide], in test [1], the IC50 was 100 to 500 nM. Further, on RIPK2 (KD)/XIAP (BIR2), the Emax was not below 80% and the IC50 lay in the range of 10 to 100 nM.

For `COc1cc2ncc(-c3cc(C(=O)N[C@H](C)c4ncc(F)cn4)n(C)n3)n2cc1S(=O)(=O)C(C)(C)C` [Example 104, (R)-3-(6-(tert-butylsulfonyl)-7-methoxyimidazo[1,2-a]pyridin-3-yl)-N-(1-(5-fluoropyrimidin-2-yl)ethyl)-1-methyl-1H-pyrazole-5-carboxamide], the values for the IC50 (in test [1]; on RIPK2 (KD)/XIAP (BIR2)) were more than 2500 nM and more than 1000 nM, respectively. Besides, at RIPK2 (KD)/XIAP (BIR2), the Emax is not below 80%.

Turning to `COCCn1nc(-c2cnc3cc(OC)c(S(=O)(=O)C(C)(C)C)cn23)cc1C(=O)N[C@H](C)c1ccccn1` [Example 105, (R)-3-(6-(tert-butylsulfonyl)-7-methoxyimidazo[1,2-a]pyridin-3-yl)-1-(2-methoxyethyl)-N-(1-(pyridin-2-yl)ethyl)-1H-pyrazole-5-carboxamide], the IC50 in test [1] fell in the range of 500 to 2500 nM. At RIPK2 (KD)/XIAP (BIR2), the Emax is not below 80% and the IC50 was in the range of 10 to 100 nM.

As to `COc1cc2ncc(-c3cc(C(=O)N[C@H](C)c4ccccn4)n(CC(F)(F)CO)n3)n2cc1S(=O)(=O)C(C)(C)C` [Example 106, (R)-3-(6-(tert-butylsulfonyl)-7-methoxyimidazo[1,2-a]pyridin-3-yl)-1-(2,2-difluoro-3-hydroxypropyl)-N-(1-(pyridin-2-yl)ethyl)-1H-pyrazole-5-carboxamide], the IC50 in test [1] is 100 to 500 nM. On RIPK2 (KD)/XIAP (BIR2), the Emax is not below 80% and the IC50 lay within 10 to 100 nM.

Regarding `COc1cc2ncc(-c3cc(C(=O)N[C@H](C)c4ncccn4)n(CC(F)(F)CO)n3)n2cc1S(=O)(=O)C(C)(C)C` [Example 107, (R)-3-(6-(tert-butylsulfonyl)-7-methoxyimidazo[1,2-a]pyridin-3-yl)-1-(2,2-difluoro-3-hydroxypropyl)-N-(1-(pyrimidin-2-yl)ethyl)-1H-pyrazole-5-carboxamide], the IC50 in test [1] lay within 500 to 2500 nM; at RIPK2 (KD)/XIAP (BIR2) it was 10 to 100 nM. Besides, the Emax on RIPK2 (KD)/XIAP (BIR2) was not below 80%.

As for `C[C@@H](NC(=O)c1cc(-c2cnc3cc(OCCO)c(S(=O)(=O)C(C)(C)C)cn23)nn1C)c1ncccn1` [Example 108, (R)-3-(6-(tert-butylsulfonyl)-7-(2-hydroxyethoxy)imidazo[1,2-a]pyridin-3-yl)-1-methyl-N-(1-(pyrimidin-2-yl)ethyl)-1H-pyrazole-5-carboxamide], the IC50 fell in the range of 100 to 500 nM in test [1] and 10 to 100 nM on RIPK2 (KD)/XIAP (BIR2). Also, on RIPK2 (KD)/XIAP (BIR2), the Emax was not below 80%.

As to `C[C@@H](NC(=O)c1cc(-c2cnc3cc(OCCO)c(S(=O)(=O)C(C)(C)C)cn23)nn1C)c1ccccn1` [Example 109, (R)-3-(6-(tert-butylsulfonyl)-7-(2-hydroxyethoxy)imidazo[1,2-a]pyridin-3-yl)-1-methyl-N-(1-(pyridin-2-yl)ethyl)-1H-pyrazole-5-carboxamide], the IC50 in test [1] was in the range of 100 to 500 nM. In addition, at RIPK2 (KD)/XIAP (BIR2), the Emax is not below 80% and the IC50 lay in the range of 10 to 100 nM.

With `C[C@@H](NC(=O)c1cc(-c2cnc3cc(OCCO)c(S(=O)(=O)C(C)(C)C)cn23)nn1C)c1ncccc1F` [Example 110, (R)-3-(6-(tert-butylsulfonyl)-7-(2-hydroxyethoxy)imidazo[1,2-a]pyridin-3-yl)-N-(1-(3-fluoropyridin-2-yl)ethyl)-1-methyl-1H-pyrazole-5-carboxamide], the values for the IC50 (in test [1]; at RIPK2 (KD)/XIAP (BIR2)) were less than 100 nM and 10 to 100 nM, respectively. The Emax at RIPK2 (KD)/XIAP (BIR2) was not below 80%.

As for `C[C@@H](NC(=O)c1cc(-c2cnc3cc(OCCO)c(S(=O)(=O)C(C)(C)C)cn23)nn1C)c1ncccc1Cl` [Example 111, (R)-3-(6-(tert-butylsulfonyl)-7-(2-hydroxyethoxy)imidazo[1,2-a]pyridin-3-yl)-N-(1-(3-chloropyridin-2-yl)ethyl)-1-methyl-1H-pyrazole-5-carboxamide], the IC50 in test [1] fell in the range of 100 to 500 nM. On RIPK2 (KD)/XIAP (BIR2), the Emax was not below 80% and the IC50 lay in the range of 10 to 100 nM.

In the case of `C[C@H](NC(=O)c1cc(-c2cnc3cc(OCCO)c(S(=O)(=O)C(C)(C)C)cn23)nn1C)c1ncccc1Cl` [Example 112, (S)-3-(6-(tert-butylsulfonyl)-7-(2-hydroxyethoxy)imidazo[1,2-a]pyridin-3-yl)-N-(1-(3-chloropyridin-2-yl)ethyl)-1-methyl-1H-pyrazole-5-carboxamide], the IC50 in test [1] is more than 2500 nM. Besides, at RIPK2 (KD)/XIAP (BIR2), the Emax lay within 55 to 80% and the IC50 was more than 1000 nM.

For `COc1cn2ncc(-c3cc(C(=O)N[C@H](C)c4ccccn4)n(C)n3)c2cc1S(=O)(=O)C(C)(C)C` [Example 113, (R)-3-(5-(tert-butylsulfonyl)-6-methoxypyrazolo[1,5-a]pyridin-3-yl)-1-methyl-N-(1-(pyridin-2-yl)ethyl)-1H-pyrazole-5-carboxamide], in test [1], the IC50 fell in the range of 500 to 2500 nM. Also, at RIPK2 (KD)/XIAP (BIR2), the Emax is not below 80% and the IC50 was 100 to 1000 nM.

(Values after US20260091026A1, “METHODS OF TREATING INFLAMMATORY DISEASES” (INTERLINE THERAPEUTICS, INC., priority 2023, published 2026).)
